{"source": "patent US20150133297A1", "about": "“NEW ANTIFUNGAL COMPOSITIONS” (DSM IP ASSETS B.V., priority 2012, published 2015)", "key": {"[1]": {"tested_on": "Botrytis cinerea", "experiment": "Treatment of strawberries (Example 5): wounded, inoculated, dipped in antifungal composition", "format": "in vivo", "conditions": "500 ppm natamycin, 600 ppm fenpropidin or both; for Observed antifungal activity O (%): strawberries, 20° C.", "experimental": "Twelve fresh, organic strawberries were used per treatment. Each strawberry was wounded with a 0.5 mm long cut and each wound was inoculated with 10 μl of a Botrytis cinerea suspension containing 1×10^5 of spores/ml. […] A composition without natamycin or fenpropidin was used as control. […] The treated strawberries were incubated in a closed box in the dark at 20° C. for 9 days. During incubation, mould growth on the strawberries was assessed in a twofold manner: […] The expected antifungal activity (E in %) of the combined antifungal composition comprising both active ingredients was calculated according to the Colby equation (Colby, 1967): […] wherein X and Y are the observed antifungal activities (in %) of the individual active ingredients X and Y, respectively."}, "[2]": {"tested_on": "Penicillium italicum", "experiment": "Treatment of oranges (Examples 6-9): wounded, inoculated, wound treated with antifungal composition", "format": "in vivo", "conditions": "for Observed antifungal activity O (%): oranges, 20° C.", "experimental": "During incubation, mould growth on the strawberries was assessed in a twofold manner: (i) the number of moulded strawberries per total of 12 strawberries was counted; and (ii) the antifungal activity (in %) of the individual and combined active ingredients was determined by calculating the reduction in mould growth observed on the strawberries treated with the antifungal composition in comparison to the mould growth on the strawberries treated with the control composition. The expected antifungal activity (E in %) of the combined antifungal composition comprising both active ingredients was calculated according to the Colby equation (Colby, 1967): […]\nEight fresh, organic oranges were used per treatment. Each orange was soaked in a 180 ppm hypochlorite solution for 10 minutes, then rinsed thoroughly with fresh tap water and dried. The peel of each disinfected orange was wounded once using a cork borer according to the method described by de Lapeyre de Bellaire and Dubois (1987). Subsequently, each wound was inoculated with 10 μl of a Penicillium italicum suspension containing 5×10^5 of spores/ml. After incubation for 3 hours at 20° C., each wound and the orange peel area of 1 cm around the wound was treated with in total 150 μl of a freshly prepared aqueous antifungal composition comprising either 500 ppm natamycin (DSM Food Specialties, Delft, The Netherlands), 500 ppm fenpropidin or both. Each antifungal composition also comprised 3.2% (w/w) beeswax, 0.8% (w/w) glycerol, 0.7% (w/w) polyoxyethylene sorbitan monostearate (Tween 60), 0.1% (w/w) polyoxyethylene sorbitan monooleate (Tween 80), 0.05% (w/w) methylhydroxyethyl-cellulose (MHEC), 0.03% (w/w) anti-foaming agent, 0.02% (w/w) xanthan gum, 0.02% (w/w) citric acid, 0.01% (w/w) lactic acid and 0.01% potassium sorbate. A composition without natamycin or fenpropidin was used as control. […] The treated oranges were incubated in a closed box in the dark at 20° C. and assessed on mould growth during a 28-day incubation period. The antifungal activity (in %) of the individual and combined active ingredients was determined by calculating the reduction in mould growth observed on the oranges treated with the antifungal composition in comparison to the mould growth on the oranges treated with the control composition according to the Colby method (Colby, 1967) as described in Example 5.\n(§1) The experiment was conducted as described in Example 6, except for the fact that each wounded and inoculated orange was treated with 150 μl of a freshly prepared aqueous antifungal composition comprising either 250 ppm natamycin (DSM Food Specialties, Delft, The Netherlands), 250 ppm fenpropidin or both. During the 26-day incubation period, the treated oranges were assessed on mould growth according to the two methods described in Example 5.\nas §1, with “either 500” for “either 250”, “Netherlands), 400” for “Netherlands), 250”, “ppm spiroxamine” for “ppm fenpropidin”\nas §1, with “Netherlands), 200” for “Netherlands), 250”, “ppm spiroxamine” for “ppm fenpropidin”"}}, "note": "Values joined by “and” are separate entries in the source; they are usually repeats but may differ in a detail not shown here. Equal entries are not always repeated."}
{"compound": "CC(Cc1ccc(C(C)(C)C)cc1)CN1CCCCC1", "note": "(stereo not drawn) [Fenpropidin, fenpropidin]", "values": [{"measurement": "Number of moulded strawberries/total number of 12 strawberries", "setting": "[1]; Day 5, 20° C.", "result": "12 and 12/12"}, {"measurement": "Number of moulded strawberries/total number of 12 strawberries", "setting": "[1]; Day 6, 20° C.", "result": "12 and 12/12"}, {"measurement": "Observed antifungal activity O (%)", "setting": "[1]; day 4", "result": 0, "unit": "%"}, {"measurement": "Observed antifungal activity O (%)", "setting": "[1]; day 5", "result": 0, "unit": "%"}, {"measurement": "Observed antifungal activity O (%)", "setting": "[1]; day 6", "result": 0, "unit": "%"}, {"measurement": "Observed antifungal activity O (%)", "setting": "[1]; day 7", "result": 0, "unit": "%"}, {"measurement": "Observed antifungal activity O (%)", "setting": "[1]; day 8", "result": 0, "unit": "%"}, {"measurement": "Observed antifungal activity O (%)", "setting": "[1]; day 9", "result": 0, "unit": "%"}, {"measurement": "Number of moulded oranges/total number of 8 oranges", "setting": "[2]; Day 18, 20° C., 250 ppm natamycin, 250 ppm fenpropidin or both", "result": "6/8"}, {"measurement": "Number of moulded oranges/total number of 8 oranges", "setting": "[2]; Day 19, 20° C., 250 ppm natamycin, 250 ppm fenpropidin or both", "result": "6/8"}, {"measurement": "Number of moulded oranges/total number of 8 oranges", "setting": "[2]; Day 20, 20° C., 250 ppm natamycin, 250 ppm fenpropidin or both", "result": "7/8"}, {"measurement": "Number of moulded oranges/total number of 8 oranges", "setting": "[2]; Day 21-22, 20° C., 250 ppm natamycin, 250 ppm fenpropidin or both", "result": "7 and 7/8"}, {"measurement": "Number of moulded oranges/total number of 8 oranges", "setting": "[2]; Day 23-26, 20° C., 250 ppm natamycin, 250 ppm fenpropidin or both", "result": "7 and 7/8"}, {"measurement": "Observed antifungal activity O (%)", "setting": "[2]; day 18, 250 ppm natamycin, 250 ppm fenpropidin or both", "result": 59, "unit": "%"}, {"measurement": "Observed antifungal activity O (%)", "setting": "[2]; day 19, 250 ppm natamycin, 250 ppm fenpropidin or both", "result": 50, "unit": "%"}, {"measurement": "Observed antifungal activity O (%)", "setting": "[2]; day 20, 250 ppm natamycin, 250 ppm fenpropidin or both", "result": 43, "unit": "%"}, {"measurement": "Observed antifungal activity O (%)", "setting": "[2]; day 21, 250 ppm natamycin, 250 ppm fenpropidin or both", "result": 38, "unit": "%"}, {"measurement": "Observed antifungal activity O (%)", "setting": "[2]; day 22, 250 ppm natamycin, 250 ppm fenpropidin or both", "result": 30, "unit": "%"}, {"measurement": "Observed antifungal activity O (%)", "setting": "[2]; day 22, 500 ppm natamycin, 500 ppm fenpropidin or both", "result": 94, "unit": "%"}, {"measurement": "Observed antifungal activity O (%)", "setting": "[2]; day 23, 250 ppm natamycin, 250 ppm fenpropidin or both", "result": 16, "unit": "%"}, {"measurement": "Observed antifungal activity O (%)", "setting": "[2]; day 23, 500 ppm natamycin, 500 ppm fenpropidin or both", "result": 89, "unit": "%"}, {"measurement": "Observed antifungal activity O (%)", "setting": "[2]; day 25, 250 ppm natamycin, 250 ppm fenpropidin or both", "result": 4, "unit": "%"}, {"measurement": "Observed antifungal activity O (%)", "setting": "[2]; day 25, 500 ppm natamycin, 500 ppm fenpropidin or both", "result": 84, "unit": "%"}, {"measurement": "Observed antifungal activity O (%)", "setting": "[2]; day 26, 250 ppm natamycin, 250 ppm fenpropidin or both", "result": 0, "unit": "%"}, {"measurement": "Observed antifungal activity O (%)", "setting": "[2]; day 26, 500 ppm natamycin, 500 ppm fenpropidin or both", "result": 81, "unit": "%"}, {"measurement": "Observed antifungal activity O (%)", "setting": "[2]; day 27, 500 ppm natamycin, 500 ppm fenpropidin or both", "result": 80, "unit": "%"}, {"measurement": "Observed antifungal activity O (%)", "setting": "[2]; day 28, 500 ppm natamycin, 500 ppm fenpropidin or both", "result": 75, "unit": "%"}]}
